Where “and” joins values, the source holds several entries; their conditions need not be identical. Equal entries are not always repeated.
Experiments:
[1] = biological target: T1, hCB1 (Homo sapiens, UniProt P21554); assay: Lance Ultra cAMP accumulation assay, CHO cells; format: cell-based; parameters: expressed in transfected cells;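 note: human CB1R stably expressed in CHO cells, ligands co-incubated with forskolin at room temperature, read-out is lowering of forskolin-stimulated cAMP accumulation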
[2] = biological target: T1, hCB1; assay: bioSensAll ebBRET signaling profiling, hCB1; format: cell-based; parameters: host or cells: HEK293SL cells, transient PEI transfection; settings: for Gi1 hCB1 response: Gi1 biosensor; for Gi1 hCB1 / GoB hCB1: single replicate values, FigS6a; for EC50: read-out: EC50 [95% CI]; for Emax: normalized to CP-55,940
[3] = biological target: CB1 (rCB1) (Rattus norvegicus, UniProt P20272); assay: Radioligand competition binding, [3H]-CP-55,940, rat brain membranes
CB1 (rCB1), sequence (P20272 whole entry): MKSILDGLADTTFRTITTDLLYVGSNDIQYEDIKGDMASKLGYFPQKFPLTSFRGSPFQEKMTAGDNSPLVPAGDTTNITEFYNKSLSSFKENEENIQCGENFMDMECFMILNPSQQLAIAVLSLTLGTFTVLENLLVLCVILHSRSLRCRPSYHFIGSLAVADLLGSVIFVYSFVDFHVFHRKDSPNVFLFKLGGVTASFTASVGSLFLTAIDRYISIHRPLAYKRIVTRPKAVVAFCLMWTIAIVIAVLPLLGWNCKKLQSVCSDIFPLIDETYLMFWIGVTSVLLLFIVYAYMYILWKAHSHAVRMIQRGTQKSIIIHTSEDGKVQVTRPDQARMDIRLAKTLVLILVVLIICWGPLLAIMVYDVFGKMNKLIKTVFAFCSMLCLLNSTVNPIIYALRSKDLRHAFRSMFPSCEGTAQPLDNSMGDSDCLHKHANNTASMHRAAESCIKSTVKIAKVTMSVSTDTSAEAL

T1 sequence (P21554 whole entry): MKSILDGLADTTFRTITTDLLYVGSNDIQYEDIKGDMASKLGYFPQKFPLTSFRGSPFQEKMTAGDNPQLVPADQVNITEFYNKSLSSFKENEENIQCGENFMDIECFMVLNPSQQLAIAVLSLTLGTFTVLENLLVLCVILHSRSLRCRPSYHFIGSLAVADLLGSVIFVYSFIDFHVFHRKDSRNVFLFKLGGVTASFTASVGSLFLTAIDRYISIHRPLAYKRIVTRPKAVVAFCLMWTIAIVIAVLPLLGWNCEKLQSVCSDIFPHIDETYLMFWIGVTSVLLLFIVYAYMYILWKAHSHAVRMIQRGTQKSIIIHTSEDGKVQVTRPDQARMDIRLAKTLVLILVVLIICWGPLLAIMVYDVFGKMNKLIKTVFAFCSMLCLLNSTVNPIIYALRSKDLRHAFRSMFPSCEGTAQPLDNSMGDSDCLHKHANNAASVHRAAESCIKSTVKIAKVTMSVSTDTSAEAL

`COC(=O)[C@](C)(NC(=O)c1cc(C)n(-c2cccc(C(F)(F)F)c2)n1)c1cccs1` [‘8690] was tested, and the EC50 [1] was 473 nM, the “Lance Ultra cAMP pEC50” value [1] was 6.3 [5.8 – 7.0] and the Emax ([1]; CHO) was 53%. For the same compound, the “Gi1 hCB1 response” value ([2]; Log [Compound] (M) -4.63927) was 107.576, the “Gi1 hCB1 response” value ([2]; Log [Compound] (M) -5.05788) was 100.593 and the “Gi1 hCB1 response” value ([2]; Log [Compound] (M) -5.47381) was 88.91. The “Gi1 hCB1 response” value ([2]; Log [Compound] (M) -5.89285) was 68.8562, the “Gi1 hCB1 response” value ([2]; Log [Compound] (M) -6.31878) was 81.5241 and the “Gi1 hCB1 response” value ([2]; Log [Compound] (M) -6.72585) was 77.4731. The “Gi1 hCB1 response” value ([2]; Log [Compound] (M) -7.14267) was 64.4023, the “Gi1 hCB1 response” value ([2]; Log [Compound] (M) -7.55284) was 52.8535 and the “Gi1 hCB1 response” value ([2]; Log [Compound] (M) -8) was 17.9832. The “Gi1 hCB1 response” value ([2]; Log [Compound] (M) -8.22186) was 31.0987, the “Gi1 hCB1 response” value ([2]; Log [Compound] (M) -8.39794) was 14.4917 and the “Gi1 hCB1 response” value ([2]; Log [Compound] (M) -8.68787) was 15.566. For the same compound, the “Gi1 hCB1 response” value ([2]; Log [Compound] (M) -9.15521) was 3.502, the “Gi1 hCB1 response” value ([2]; Log [Compound] (M) -9.61989) was 4.487 and the “Gi1 hCB1 response” value ([2]; Log [Compound] (M) -10.0969) was -7.576. For the same compound, the “Gi1 hCB1 response” value ([2]; Log [Compound] (M) -10.5529) was -10.5308, the “Gi1 hCB1 response” value ([2]; Log [Compound] (M) -11.0177) was -2.272 and the “Gi1 hCB1 response” value ([2]; Log [Compound] (M) -11.4949) was -1.802. The “Gi1 hCB1 response” value ([2]; Log [Compound] (M) -11.9208) was -1.466, the “Gi1 hCB1 response” value ([2]; Log [Compound] (M) -12.3979) was 8.695 and the “Gi1 hCB1 response” value ([2]; Log [Compound] (M) -12.8861) was 6.367. The “Gi1 hCB1 response” value ([2]; Log [Compound] (M) -13, individual replicate values) was -3.951, the “Gi1 hCB1” value ([2]; Log [Compound] (M) -4.22186) was 95.271 and 72.3781 and the “GoB hCB1” value ([2]; Log [Compound] (M) -4.22186) was 82.2993 and 86.8881. For the same compound, the “Gi1 hCB1” value ([2]; Log [Compound] (M) -4.63927) was 89.1198 and 73.8984, the “GoB hCB1” value ([2]; Log [Compound] (M) -4.63927) was 85.86 and 78.0511 and the “Gi1 hCB1” value ([2]; Log [Compound] (M) -5.05788) was 89.7364 and 64.618. The “GoB hCB1” value ([2]; Log [Compound] (M) -5.05788) was 82.8568 and 73.8497, the “Gi1 hCB1” value ([2]; Log [Compound] (M) -5.47381) was 86.2831 and 71.6021 and the “GoB hCB1” value ([2]; Log [Compound] (M) -5.47381) was 95.4631 and 77.0615. For the same compound, the “Gi1 hCB1” value ([2]; Log [Compound] (M) -5.89285) was 88.8731 and 77.0341, the “GoB hCB1” value ([2]; Log [Compound] (M) -5.89285) was 89.4387 and 75.2907 and the “Gi1 hCB1” value ([2]; Log [Compound] (M) -6.31878) was 83.354 and 71.8555. The “GoB hCB1” value ([2]; Log [Compound] (M) -6.31878) was 83.9538 and 76.1935, the “Gi1 hCB1” value ([2]; Log [Compound] (M) -6.72585) was 79.6848 and 68.7673 and the “GoB hCB1” value ([2]; Log [Compound] (M) -6.72585) was 88.3597 and 69.9433. For the same compound, the “Gi1 hCB1” value ([2]; Log [Compound] (M) -7.14267) was 72.1769 and 53.833, the “GoB hCB1” value ([2]; Log [Compound] (M) -7.14267) was 73.7932 and 56.1409 and the “Gi1 hCB1” value ([2]; Log [Compound] (M) -7.55284) was 51.6729 and 43.6499. The “GoB hCB1” value ([2]; Log [Compound] (M) -7.55284) was 61.8702 and 41.6614, the “Gi1 hCB1” value ([2]; Log [Compound] (M) -8) was 32.3713 and 22.1909 and the “GoB hCB1” value ([2]; Log [Compound] (M) -8) was 32.3776 and 21.4874. The “Gi1 hCB1” value ([2]; Log [Compound] (M) -8.22186) was 19.0514 and 17.5665, the “GoB hCB1” value ([2]; Log [Compound] (M) -8.22186) was 16.1566 and 14.2824 and the “Gi1 hCB1” value ([2]; Log [Compound] (M) -8.39794) was 17.4789 and 12.7996. For the same compound, the “GoB hCB1” value ([2]; Log [Compound] (M) -8.39794) was 19.8252 and 10.1677, the “Gi1 hCB1” value ([2]; Log [Compound] (M) -8.68787) was 7.998 and 0.7635 and the “GoB hCB1” value ([2]; Log [Compound] (M) -8.68787) was 1.86 and 2.6849. The “Gi1 hCB1” value ([2]; Log [Compound] (M) -9.15521) was 2.91 and 0.2884, the “GoB hCB1” value ([2]; Log [Compound] (M) -9.15521) was 1.788 and -5.44 and the “Gi1 hCB1” value ([2]; Log [Compound] (M) -9.61989) was 1.7386 and -5.445. The “GoB hCB1” value ([2]; Log [Compound] (M) -9.61989) was -0.8737 and -6.308, the “Gi1 hCB1” value ([2]; Log [Compound] (M) -10.0969) was 1.245 and -4.415 and the “GoB hCB1” value ([2]; Log [Compound] (M) -10.0969) was -2.852 and -5.544. The “Gi1 hCB1” value ([2]; Log [Compound] (M) -10.5529) was 0.9678 and -3.3699, the “GoB hCB1” value ([2]; Log [Compound] (M) -10.5529) was -2.528 and -5.649 and the “Gi1 hCB1” value ([2]; Log [Compound] (M) -11.0177) was 2.371 and -4.415. For the same compound, the “GoB hCB1” value ([2]; Log [Compound] (M) -11.0177) was -2.294 and -7.871, the “Gi1 hCB1” value ([2]; Log [Compound] (M) -11.4949) was -0.1731 and -5.27 and the “GoB hCB1” value ([2]; Log [Compound] (M) -11.4949) was 0.583 and -6.36. The “Gi1 hCB1” value ([2]; Log [Compound] (M) -11.9208) was 0.6903 and -3.196, the “GoB hCB1” value ([2]; Log [Compound] (M) -11.9208) was 1.158 and -6.864 and the “Gi1 hCB1” value ([2]; Log [Compound] (M) -12.3979) was 1.692 and -4.146. The “GoB hCB1” value ([2]; Log [Compound] (M) -12.3979) was 3.838 and -6.76, the “Gi1 hCB1” value ([2]; Log [Compound] (M) -12.8861) was 2.602 and -5.207 and the “GoB hCB1” value ([2]; Log [Compound] (M) -12.8861) was -0.1004 and -5.944. The “Gi1 hCB1” value ([2]; Log [Compound] (M) -13) was 1.677 and 3.693, the “GoB hCB1” value ([2]; Log [Compound] (M) -13) was -0.7478 and -0.8395 and the “Gi1 hCB1” value ([2]; Log [Compound] (M) cell empty) was -2.293. The “GoB hCB1” value ([2]; Log [Compound] (M) cell empty) was -5.1625, the “pEC50 [95% CI]” value ([2]; hCB1 Gi1) was 7.72 [7.6 – 7.8] and the “pEC50 [95% CI]” value ([2]; hCB1 GoB) was 7.8 [7.7 – 7.9]. The “pEC50 [95% CI]” value ([2]; hCB1 Gz) was 7.5 [6.9 – 7.8], the EC50 ([2]; hCB1 GoB) was 18 nM and the EC50 ([2]; hCB1 Gz) was 33 nM. The Emax ([2]; read-out: Emax [95% CI], hCB1 Gi1) was 82%, the Emax ([2]; read-out: Emax [95% CI], hCB1 GoB) was 83% and the Emax ([2]; read-out: Emax [95% CI], hCB1 Gz) was 98%. The “pKi [95% CI]” value ([3]; rCB1) was 7.1 [6.9 – 7.3] and the Ki ([3]; read-out: Ki [95% CI], rCB1, [3H]-CP-55,940) was 90.2 nM.
